{"source": "ChEMBL document CHEMBL1135510", "about": "“Common and selective molecular determinants involved in metabotopic glutamate receptor agonist activity” (J Med Chem, 2002)", "key": {"[1]": {"molecular_target": "T1, Metabotropic glutamate receptor 2 (Homo sapiens, UniProt Q14416)", "assay": "Binding affinity at Metabotropic glutamate receptor 2", "set-up": "species or system Rattus norvegicus"}, "[2]": {"molecular_target": "T2, Metabotropic glutamate receptor 4 (Homo sapiens, UniProt Q14833)", "T2 sequence (Q14833 whole entry)": "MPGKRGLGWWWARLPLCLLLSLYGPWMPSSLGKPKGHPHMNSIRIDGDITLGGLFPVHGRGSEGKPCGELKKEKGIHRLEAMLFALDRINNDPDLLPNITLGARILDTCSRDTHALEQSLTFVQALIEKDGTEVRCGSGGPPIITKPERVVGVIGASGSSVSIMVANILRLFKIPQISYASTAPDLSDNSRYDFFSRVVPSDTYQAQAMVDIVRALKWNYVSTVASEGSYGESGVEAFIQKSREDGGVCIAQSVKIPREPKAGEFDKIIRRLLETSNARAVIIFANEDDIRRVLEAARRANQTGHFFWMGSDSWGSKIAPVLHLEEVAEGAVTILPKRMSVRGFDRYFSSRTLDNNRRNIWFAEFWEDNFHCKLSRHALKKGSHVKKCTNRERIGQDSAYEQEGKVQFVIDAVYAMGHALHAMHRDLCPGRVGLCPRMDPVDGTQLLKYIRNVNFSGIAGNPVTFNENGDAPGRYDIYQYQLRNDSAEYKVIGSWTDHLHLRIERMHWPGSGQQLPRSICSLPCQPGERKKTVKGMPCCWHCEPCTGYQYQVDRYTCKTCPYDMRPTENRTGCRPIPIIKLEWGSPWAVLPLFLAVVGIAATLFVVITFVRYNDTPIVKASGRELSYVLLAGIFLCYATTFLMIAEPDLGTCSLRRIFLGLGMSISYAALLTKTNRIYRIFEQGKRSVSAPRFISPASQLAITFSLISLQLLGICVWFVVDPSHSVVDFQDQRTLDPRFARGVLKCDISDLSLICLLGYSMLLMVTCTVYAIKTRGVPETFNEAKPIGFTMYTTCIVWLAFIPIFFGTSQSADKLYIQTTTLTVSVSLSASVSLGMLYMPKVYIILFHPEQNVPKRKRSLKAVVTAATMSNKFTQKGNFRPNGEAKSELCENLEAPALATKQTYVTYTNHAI", "assay": "Binding affinity at Metabotropic glutamate receptor 4", "set-up": "species or system Rattus norvegicus"}, "[3]": {"molecular_target": "T1, Metabotropic glutamate receptor 2", "assay": "Potency at Metabotropic glutamate receptor 2, measured as the ratio of EC50 to IC50; No effect at 1 mM"}, "[4]": {"molecular_target": "Metabotropic glutamate receptor 1 (Homo sapiens) (UniProt Q13255)", "sequence (Q13255 19-1194 limits assumed)": "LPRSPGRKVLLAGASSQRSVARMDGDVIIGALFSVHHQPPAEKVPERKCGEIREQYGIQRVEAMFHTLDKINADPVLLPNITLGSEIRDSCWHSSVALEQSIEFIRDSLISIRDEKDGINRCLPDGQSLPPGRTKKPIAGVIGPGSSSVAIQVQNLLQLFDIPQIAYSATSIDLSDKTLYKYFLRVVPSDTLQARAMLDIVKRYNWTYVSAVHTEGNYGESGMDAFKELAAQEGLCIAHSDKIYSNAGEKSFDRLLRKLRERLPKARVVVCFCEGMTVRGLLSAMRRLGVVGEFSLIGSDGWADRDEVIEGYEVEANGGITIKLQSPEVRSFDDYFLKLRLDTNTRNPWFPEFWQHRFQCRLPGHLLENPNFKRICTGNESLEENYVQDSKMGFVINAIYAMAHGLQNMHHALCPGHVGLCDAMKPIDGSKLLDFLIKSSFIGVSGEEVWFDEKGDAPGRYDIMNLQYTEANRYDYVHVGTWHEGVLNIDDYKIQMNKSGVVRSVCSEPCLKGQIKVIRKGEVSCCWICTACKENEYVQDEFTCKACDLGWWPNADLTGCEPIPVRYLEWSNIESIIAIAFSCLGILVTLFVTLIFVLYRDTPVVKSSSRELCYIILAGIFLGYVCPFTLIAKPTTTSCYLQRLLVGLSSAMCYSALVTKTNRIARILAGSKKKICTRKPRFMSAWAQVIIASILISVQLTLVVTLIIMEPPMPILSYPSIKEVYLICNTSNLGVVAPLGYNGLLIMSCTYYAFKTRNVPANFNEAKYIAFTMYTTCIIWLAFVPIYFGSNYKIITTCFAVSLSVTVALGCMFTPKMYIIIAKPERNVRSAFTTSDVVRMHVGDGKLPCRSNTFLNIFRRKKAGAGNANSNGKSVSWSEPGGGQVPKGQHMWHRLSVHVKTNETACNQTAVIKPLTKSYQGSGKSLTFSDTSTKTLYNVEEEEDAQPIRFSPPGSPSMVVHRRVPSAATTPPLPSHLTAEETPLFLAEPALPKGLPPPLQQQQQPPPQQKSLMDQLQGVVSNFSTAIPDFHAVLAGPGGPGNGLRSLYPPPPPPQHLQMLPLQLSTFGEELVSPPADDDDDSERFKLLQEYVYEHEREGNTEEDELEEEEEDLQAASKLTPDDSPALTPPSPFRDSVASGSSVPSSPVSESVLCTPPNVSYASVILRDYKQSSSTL", "assay": "Potency at Metabotropic glutamate receptor 1, measured as the ratio of EC50 to IC50; No effect at 1 mM"}, "[5]": {"molecular_target": "Metabotropic glutamate receptor 1 (Rattus norvegicus, UniProt P23385)", "sequence (P23385 whole entry)": "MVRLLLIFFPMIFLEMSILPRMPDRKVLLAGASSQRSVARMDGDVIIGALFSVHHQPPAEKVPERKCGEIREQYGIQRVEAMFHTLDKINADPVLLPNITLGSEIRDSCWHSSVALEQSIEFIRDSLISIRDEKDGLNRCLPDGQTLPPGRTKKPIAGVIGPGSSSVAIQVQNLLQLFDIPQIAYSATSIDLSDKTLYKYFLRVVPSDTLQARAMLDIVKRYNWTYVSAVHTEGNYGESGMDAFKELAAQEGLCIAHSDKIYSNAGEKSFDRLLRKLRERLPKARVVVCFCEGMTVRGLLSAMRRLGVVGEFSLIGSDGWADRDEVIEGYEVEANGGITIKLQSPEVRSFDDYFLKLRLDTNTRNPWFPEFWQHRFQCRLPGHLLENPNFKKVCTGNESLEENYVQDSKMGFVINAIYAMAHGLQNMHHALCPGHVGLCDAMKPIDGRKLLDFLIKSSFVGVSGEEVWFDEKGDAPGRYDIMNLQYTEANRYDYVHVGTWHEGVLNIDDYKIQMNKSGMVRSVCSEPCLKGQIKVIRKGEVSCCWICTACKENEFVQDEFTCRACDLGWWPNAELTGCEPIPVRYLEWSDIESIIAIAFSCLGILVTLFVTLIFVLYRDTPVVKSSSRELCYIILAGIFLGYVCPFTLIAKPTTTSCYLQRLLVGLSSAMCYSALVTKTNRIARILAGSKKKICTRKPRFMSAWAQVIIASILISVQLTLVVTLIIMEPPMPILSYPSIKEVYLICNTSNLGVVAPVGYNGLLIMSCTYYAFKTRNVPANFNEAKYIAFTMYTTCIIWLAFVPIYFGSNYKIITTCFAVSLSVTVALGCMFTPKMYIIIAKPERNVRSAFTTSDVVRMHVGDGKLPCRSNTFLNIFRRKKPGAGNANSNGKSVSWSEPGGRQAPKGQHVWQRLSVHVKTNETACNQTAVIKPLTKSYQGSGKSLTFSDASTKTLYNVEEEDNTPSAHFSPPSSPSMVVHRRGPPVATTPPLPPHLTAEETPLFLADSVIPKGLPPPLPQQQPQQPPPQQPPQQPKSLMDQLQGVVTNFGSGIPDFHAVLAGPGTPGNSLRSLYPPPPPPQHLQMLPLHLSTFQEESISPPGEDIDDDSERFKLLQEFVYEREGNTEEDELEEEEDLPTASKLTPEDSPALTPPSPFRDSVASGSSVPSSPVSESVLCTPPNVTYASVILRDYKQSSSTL", "assay": "Inhibition of binding to rat mGluR1a (metabotropic glutamate receptor) expressed in HEK-293 cells", "type": "cell-based, HEK293"}, "[6]": {"molecular_target": "T2, Metabotropic glutamate receptor 4", "assay": "Potency at metabotropic glutamate receptor 4, measured as the ratio of EC50 to IC50; No effect at 1 mM"}, "[7]": {"molecular_target": "T1, Metabotropic glutamate receptor 2", "assay": "Potency at metabotropic glutamate receptor 2, measured as the ratio of EC50 to IC50; No effect at 1 mM"}, "[8]": {"molecular_target": "Metabotropic glutamate receptor 1 (Homo sapiens) (UniProt Q13255)", "assay": "Potency at metabotropic glutamate receptor 1, measured as the ratio of EC50 to IC50; No effect at 1 mM"}}}
{"molecule": "N[C@@H](Cn1oc(=O)[nH]c1=O)C(=O)O", "note": "[QUISQUALATE]", "values": [{"measurement": "Ki", "setting": "[1]", "result": 113, "unit": "µM"}, {"measurement": "Ki", "setting": "[2]", "result": 112, "unit": "µM"}]}
{"molecule": "N[C@@]1(C(=O)O)CC[C@H]2[C@H](C(=O)O)[C@H]21", "values": [{"measurement": "Ki", "setting": "[1]", "result": 0.013, "unit": "µM"}]}
{"molecule": "N[C@H](C(=O)O)c1ccc(P(=O)(O)O)cc1", "values": [{"measurement": "NE", "setting": "[3]", "result": "No effect at 1 mM"}, {"measurement": "NE", "setting": "[4]", "result": "No effect at 1 mM"}]}
{"molecule": "N[C@H](C(=O)O)C1[C@@H](C(=O)O)[C@@H]1C(=O)O", "note": "(some centres undefined)", "values": [{"measurement": "Ki", "setting": "[5]", "result": 77, "unit": "µM"}, {"measurement": "Ki", "setting": "[1]", "result": 0.11, "unit": "µM"}]}
{"molecule": "N[C@H](C(=O)O)c1cc(O)cc(O)c1", "values": [{"measurement": "Ki", "setting": "[5]", "result": 0.9, "unit": "µM"}, {"measurement": "Ki", "setting": "[1]", "result": "> 1000", "unit": "µM"}, {"measurement": "NE", "setting": "[6]", "result": "No effect at 1 mM"}, {"measurement": "NE", "setting": "[7]", "result": "No effect at 1 mM"}]}
{"molecule": "N[C@H](C(=O)O)c1ccc(C(=O)O)cc1", "values": [{"measurement": "Ki", "setting": "[5]", "result": 3.7, "unit": "µM"}, {"measurement": "Ki", "setting": "[2]", "result": 838, "unit": "µM"}]}
{"molecule": "N[C@@H](CCP(=O)(O)O)C(=O)O", "values": [{"measurement": "Ki", "setting": "[5]", "result": "> 1000", "unit": "µM"}, {"measurement": "Ki", "setting": "[1]", "result": 129, "unit": "µM"}, {"measurement": "NE", "setting": "[8]", "result": "No effect at 1 mM"}, {"measurement": "Ki", "setting": "[2]", "result": 0.47, "unit": "µM"}]}
{"molecule": "N[C@@]1(C(=O)O)C[C@H](C(=O)O)[C@H](C(=O)O)C1", "values": [{"measurement": "NE", "setting": "[3]", "result": "No effect at 1 mM"}, {"measurement": "NE", "setting": "[4]", "result": "No effect at 1 mM"}]}
